This note sets out measurements from ChEMBL document CHEMBL3769367, “Orexin Receptor Antagonists: New Therapeutic Agents for the Treatment of Insomnia” (J Med Chem, 2016).

A short description of data set [1]: Oral bioavailability in Wistar rat at 10 mg/kg. Format: ADME, organism-based. Particulars: in vivo.
The nature of data set [2]: Oral bioavailability in Beagle dog at 3 mg/kg. The data set is classed as ADME, organism-based, Canis lupus familiaris. Particulars: in vivo.
Data set [3] in a line: Clearance in Beagle dog 1 mg/kg, iv. Format: ADME, organism-based, Canis lupus familiaris. Particulars: in vivo.
Data set [4] in a line: Tmax in human at 1 to 1500 mg, po administered as single dose. The data set is classed as ADME, organism-based. Particulars: in vivo.
Data set [5] can be described thus: Ratio of drug level in brain to plasma in Wistar rat. Particulars: read-out: BPR. The data set is classed as ADME, cell-free.
Data set [6] can be described thus: Clearance in Wistar rat at 1 mg/kg, iv. The data set is classed as ADME, organism-based. Particulars: in vivo.
Data set [7] can be described thus: Plasma protein binding in Beagle dog. The data set is classed as ADME, cell-free, Canis lupus familiaris. Particulars: read-out: PPB (converted).
Data set [8] is described as follows: Half life in Wistar rat at 1 mg/kg, iv. The data set is classed as ADME, organism-based. Particulars: in vivo.
Data set [9] can be described thus: Plasma protein binding in human. Format: ADME, cell-free. Particulars: read-out: PPB (converted).
A further data set deals with Canis familiaris. Kind of data set: Effect on sleep parameter in po dosed Beagle dog by EEG analysis. Format: functional, Canis lupus familiaris.
A short description of data set [10]: Half life in Beagle dog 1 mg/kg, iv. Particulars: in vivo. The data set is classed as ADME, organism-based, Canis lupus familiaris.
Data set [11] in a line: Half life in human plasma at 1 to 1500 mg, po administered as single dose. Format: ADME, organism-based.
The test system of data set [12] is Rattus norvegicus. Kind of data set: Effect on sleep parameter in po dosed Wistar rat by EEG analysis. The data set is classed as functional.
Data set [13] can be described thus: Plasma protein binding in Wistar rat. The data set is classed as ADME, cell-free. Particulars: read-out: PPB (converted).
Data set [14] is described as follows: Half life in iv dosed rhesus monkey. The data set is classed as ADME, organism-based, Macaca mulatta. Particulars: in vivo.
The nature of data set [15]: Half life in human plasma at 5 to 250 mg, po. Format: ADME, organism-based.
Data set [16] deals with T1, Orexin/Hypocretin receptor type 1 (Homo sapiens, UniProt O43613).
T1 sequence (O43613 whole entry): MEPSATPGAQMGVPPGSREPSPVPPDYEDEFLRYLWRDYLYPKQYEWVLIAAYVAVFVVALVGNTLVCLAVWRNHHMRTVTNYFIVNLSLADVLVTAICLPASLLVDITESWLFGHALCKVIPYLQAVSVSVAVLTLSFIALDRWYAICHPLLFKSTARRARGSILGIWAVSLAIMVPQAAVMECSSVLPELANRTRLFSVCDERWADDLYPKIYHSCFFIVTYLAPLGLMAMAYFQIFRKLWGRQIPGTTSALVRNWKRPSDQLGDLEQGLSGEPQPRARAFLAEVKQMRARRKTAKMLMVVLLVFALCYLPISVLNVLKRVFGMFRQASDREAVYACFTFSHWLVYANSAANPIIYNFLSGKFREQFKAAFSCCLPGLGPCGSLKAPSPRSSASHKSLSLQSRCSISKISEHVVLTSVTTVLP
Kind of data set: Antagonist activity at human OX1R expressed in CHO cells by FLIPR assay. The data set is classed as cell-based.

Data set [17] in a line: Lipophilicity, log D of the compound. Format: physicochemical. Particulars: octanol/water.
Data set [18] is filed under the species Rattus norvegicus. Kind of data set: Receptor occupancy at OX2R in rat brain assessed as drug level in plasma. Format: functional.
Data set [19] is described as follows: Clearance in iv dosed rhesus monkey. Format: ADME, organism-based, Macaca mulatta. Particulars: in vivo.
For the next data set, the system named is Rhesus monkey. Briefly: Effect on sleep parameter in po dosed rhesus monkey by EEG analysis. Format: functional, Macaca mulatta.
Data set [20] in a line: Plasma protein binding in rhesus monkey. The data set is classed as ADME, cell-free, Macaca mulatta. Particulars: read-out: PPB (converted).
Another data set deals with Liver microsome. Kind of data set: GSH activity in human liver microsomes assessed as reduction in GSH adduct formation. Format: ADME. Details: scale not given: the % may be the effect or the level left. For orientation: Microsomes from liver hold many membrane-bound enzymes, among them those of drug oxidation.
Data set [21] in a line: Plasma protein binding in Sprague-Dawley rat. Format: ADME, cell-free. Particulars: read-out: PPB (converted).
The nature of data set [22]: Half life in iv dosed Sprague-Dawley rat. Format: ADME, organism-based. Particulars: in vivo.
Data set [23] is described as follows: Clearance in iv dosed Sprague-Dawley rat. Format: ADME, organism-based. Particulars: in vivo.
Data set [24] in a line: Half life in iv dosed Beagle dog. The data set is classed as ADME, organism-based, Canis lupus familiaris. Particulars: in vivo.
Data set [25] in a line: Oral bioavailability in Sprague-Dawley rat. Format: ADME, organism-based. Particulars: in vivo.
The nature of data set [26]: Tmax in human plasma at 5 to 250 mg, po. The data set is classed as ADME, organism-based.
The nature of data set [27]: Oral bioavailability Beagle dog. The data set is classed as ADME, organism-based, Canis lupus familiaris. Particulars: in vivo.
Data set [28] can be described thus: Oral bioavailability rhesus monkey. Format: ADME, organism-based, Macaca mulatta. Particulars: in vivo.
The test system of the next data set is Mus musculus. Kind of data set: Effect on sleep parameter in po dosed C57/BL6 mouse by EEG analysis. The data set is classed as functional.
Data set [29] concerns Rattus norvegicus. Kind of data set: Effect on sleep parameter in po dosed Sprague-Dawley rat by EEG analysis. Format: functional.
Data set [30] can be described thus: Clearance in iv dosed Beagle dog. The data set is classed as ADME, organism-based, Canis lupus familiaris. Particulars: in vivo.
The target of the next data set is T2, Orexin receptor type 2 (Homo sapiens, UniProt O43614).
T2 sequence (O43614 whole entry): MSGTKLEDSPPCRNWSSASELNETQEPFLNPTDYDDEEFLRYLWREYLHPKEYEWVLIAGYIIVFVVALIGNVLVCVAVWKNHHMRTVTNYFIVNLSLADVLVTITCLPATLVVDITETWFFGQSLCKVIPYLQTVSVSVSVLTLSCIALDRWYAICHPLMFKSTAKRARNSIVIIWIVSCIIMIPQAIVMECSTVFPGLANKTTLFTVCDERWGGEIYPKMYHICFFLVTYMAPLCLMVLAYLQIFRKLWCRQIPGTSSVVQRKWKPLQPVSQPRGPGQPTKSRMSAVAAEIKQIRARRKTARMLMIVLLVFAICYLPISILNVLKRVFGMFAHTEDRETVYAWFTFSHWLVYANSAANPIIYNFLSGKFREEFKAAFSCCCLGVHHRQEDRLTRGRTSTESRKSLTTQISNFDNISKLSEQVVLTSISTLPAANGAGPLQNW
Briefly: Antagonist activity at human OX2R expressed in CHO cells by FLIPR assay. Format: cell-based.

In another data set the target is Cytochrome P450 3A4 (Homo sapiens, UniProt P08684). Kind of data set: Inhibition of CYP3A4 (unknown origin). Format: ADME.
Cytochrome P450 3A4, sequence (P08684 whole entry): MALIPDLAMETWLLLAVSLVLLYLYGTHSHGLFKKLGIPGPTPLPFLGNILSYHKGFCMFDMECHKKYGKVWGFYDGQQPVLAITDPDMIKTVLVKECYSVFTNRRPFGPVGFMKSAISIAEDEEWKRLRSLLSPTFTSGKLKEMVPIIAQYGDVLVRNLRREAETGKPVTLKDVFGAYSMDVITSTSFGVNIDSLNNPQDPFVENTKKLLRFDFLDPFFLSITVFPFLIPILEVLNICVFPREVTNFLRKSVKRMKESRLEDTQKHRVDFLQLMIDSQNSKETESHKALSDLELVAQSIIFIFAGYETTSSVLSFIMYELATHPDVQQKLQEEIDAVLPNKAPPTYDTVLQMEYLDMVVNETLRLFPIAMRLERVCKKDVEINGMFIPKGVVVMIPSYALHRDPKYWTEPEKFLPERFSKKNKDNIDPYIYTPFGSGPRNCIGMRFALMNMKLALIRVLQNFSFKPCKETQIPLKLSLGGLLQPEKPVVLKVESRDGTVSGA

On to `COc1ccc(S(=O)(=O)N2CCC[C@H]2C(=O)Nc2cc(C)cc(C)c2)cc1` [ACT-462206], for which the bioavailability (usually dose-corrected exposure relative to a reference, in per cent) stood at 39% in [1] and 52% in data set [2]. Also, the clearance – broadly, the volume of plasma or blood freed of the substance per unit of time – was 11 mL/min/kg in [3] and 29 mL/min/kg in [6]. Also, in [4], the Tmax (in general, the time from dosing to the highest level) amounted to 1.5 h. Further, in [5], the Kp amounted to 0.46. Moreover, the fraction unbound in [7] is 0.011; in data set [9], 0.007; in data set [13], 0.007. Besides, the half-life (in general, the time in which the quantity being followed falls by half) in data set [8] was 1.9 h; in data set [10] it was 1.7 h; in data set [11], 10 h. Further, the Activity in the data set on Canis familiaris and with Rattus norvegicus [12] was 100 mg/kg each time.
`COc1ccc(CNC(=O)c2cc(-c3cncc(Cl)c3)cnc2-c2ccccn2)nc1OC` [MK-1064]: the half-life was 0.8 h in data set [14], 1.6 h in data set [15], 0.3 h in data set [22] and 1 h in data set [24]. Besides, the values for the IC50 (in data set [16]; against Orexin receptor type 2; against Cytochrome P450 3A4) were 1790 nM, 18 nM and 28000 nM, respectively. In [17], the pH-dependent lipophilicity (logD) (in general, lipophilicity at a set pH, counting ionised and neutral species) worked out at 1.8. For the same molecule, in the data set listed under Rattus norvegicus [18], the Occ90 stood at 695 nM. For the same molecule, the results for the clearance in [19], in data set [23] and in data set [30] were 12 mL/min/kg, 36 mL/min/kg and 16 mL/min/kg, respectively. For the same molecule, the Activity in the data set with Rhesus monkey came to 10 mg/kg; with Liver microsome it was 85%; in the data set on Canis familiaris it was 1 mg/kg; in the data set with Mus musculus, 100 mg/kg; in the data set with Rattus norvegicus [29], 20 mg/kg. Besides, the fraction unbound was 0.06 in data set [20], 0.19 in data set [21], 0.29 in [7] and 0.03 in data set [9]. Moreover, the bioavailability stood at 54% in data set [25], 48% in data set [27] and 16% in [28]. In addition, the Tmax in [26] turned out to be 1 h.
